# Measurements from ChEMBL document CHEMBL1201862, “PubChem BioAssay data set” (2004).
# Active and inactive are the calls of the source.
# Key:
# [1] = target: DNA (cytosine-5)-methyltransferase 1 (Homo sapiens, UniProt P26358); assay: inhibition of DNA methylation by DNMT1 – biochemical, fluorescent molecular beacon, confirmation (AID 602386); assay type: functional
# Streptococcus = assay: GAS UMAA2166 growth inhibition – luminescence, BacTiterGlo, counter-screen for streptokinase expression inhibitor project, dose response (AID 1915); assay type: functional, organism-based;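 note: potency for reduction of bacterial viability or growth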
# Streptokinase A = target: T1, Streptokinase A (Streptococcus pyogenes serotype M1, UniProt P10520); assay: viability-normalized secreted streptokinase activity reduction – plasminogen activation absorbance, OD405, dose response (AID 1914); assay type: functional, Streptococcus pyogenes M1 GAS;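 note: secreted streptokinase activity via plasminogen activation per viability signal from cell pellet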
# T1 sequence (P10520 whole entry): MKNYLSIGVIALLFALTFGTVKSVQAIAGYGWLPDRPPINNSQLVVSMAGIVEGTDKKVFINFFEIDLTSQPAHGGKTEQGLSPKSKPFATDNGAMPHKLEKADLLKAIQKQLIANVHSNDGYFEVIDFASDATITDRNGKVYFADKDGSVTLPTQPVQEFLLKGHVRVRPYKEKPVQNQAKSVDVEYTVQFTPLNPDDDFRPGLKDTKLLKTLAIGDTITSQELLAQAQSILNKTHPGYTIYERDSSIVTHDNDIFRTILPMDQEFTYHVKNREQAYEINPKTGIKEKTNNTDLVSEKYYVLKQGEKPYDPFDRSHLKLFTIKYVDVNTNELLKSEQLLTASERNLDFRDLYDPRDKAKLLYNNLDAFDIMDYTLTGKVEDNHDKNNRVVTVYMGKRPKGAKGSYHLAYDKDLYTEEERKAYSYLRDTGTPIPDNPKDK
# [2] = system: Streptococcus sp. 'group A'; assay: Streptococcus pyogenes SK(-)GAS viability under kanamycin – luminescence, BacTiterGlo, confirmation, counter-screen for streptokinase expression inhibitor project, dose response (AID 1900); assay type: functional, organism-based
# [3] = target: Beta-2 adrenergic receptor (Homo sapiens, UniProt P07550); assay: ADRB2 activation measured by internalization – cell-based, FAP fluorogen, flow cytometry, cherry pick 1, dose response (AID 588763); assay type: functional
# [4] = target: DNA dC->dU-editing enzyme APOBEC-3G (Homo sapiens, UniProt Q9HC16); assay type: functional;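 note: Dose-response counterscreen measuring inhibition of APOBEC3G DNA deaminase activity, run while confirming APOBEC3A inhibitors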
# [5] = target: DNA dC->dU-editing enzyme APOBEC-3A (Homo sapiens, UniProt P31941); assay: Dose Response confirmation of small molecule APOBEC3A DNA Deaminase Inhibitors via a fluorescence-based single-stranded DNA deaminase assay. [Related pubchem assays (depositor defined):AID493011, AID493024]; assay type: functional
# [6] = mammalian cell viability loss – Alamar Blue, dry powder, cytotoxicity control for antifungal single agent project, dose response (AID 602188); assay type: functional, cell-based
# [7] = target: Adenosylmethionine-8-amino-7-oxononanoate aminotransferase (Mycobacterium tuberculosis, UniProt P9WQ81); assay: Mycobacterium tuberculosis BioA enzyme inhibitor Measured in Biochemical System Using Plate Reader - 2163-02_Inhibitor_Dose_CherryPick_Activity.; assay type: functional, Mycobacterium tuberculosis UT205
# Trypsin = Trypsin (Sus scrofa, UniProt P00761); assay: trypsin protease activity blockade – biochemical, quenched peptide fluorescence, cherry-pick, selectivity assay for Rce1 protease inhibitor project, dose response (AID 488789)
# CAAX prenyl protease 2 [8] = target: T2, CAAX prenyl protease 2 (Homo sapiens, UniProt Q9Y256); assay: inhibition of Ras-converting CAAX protease Rce1 – biochemical, yeast membranes, quenched-peptide fluorescence, cherry-pick, dose response (AID 588849)
# T2 sequence (Q9Y256 whole entry): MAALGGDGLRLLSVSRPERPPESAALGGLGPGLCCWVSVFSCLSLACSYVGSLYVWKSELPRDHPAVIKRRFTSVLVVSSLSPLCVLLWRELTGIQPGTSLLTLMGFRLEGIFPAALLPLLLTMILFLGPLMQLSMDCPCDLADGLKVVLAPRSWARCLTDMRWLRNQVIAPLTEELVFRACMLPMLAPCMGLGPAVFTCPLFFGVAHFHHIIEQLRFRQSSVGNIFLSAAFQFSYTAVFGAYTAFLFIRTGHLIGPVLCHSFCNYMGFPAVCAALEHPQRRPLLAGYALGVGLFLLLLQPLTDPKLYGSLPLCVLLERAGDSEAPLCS
# CAAX prenyl protease 2 [9] = target: T3, CAAX prenyl protease 2 (Saccharomyces cerevisiae S288c, UniProt Q03530); assay type: biochemical
# T3 sequence (Q03530 whole entry): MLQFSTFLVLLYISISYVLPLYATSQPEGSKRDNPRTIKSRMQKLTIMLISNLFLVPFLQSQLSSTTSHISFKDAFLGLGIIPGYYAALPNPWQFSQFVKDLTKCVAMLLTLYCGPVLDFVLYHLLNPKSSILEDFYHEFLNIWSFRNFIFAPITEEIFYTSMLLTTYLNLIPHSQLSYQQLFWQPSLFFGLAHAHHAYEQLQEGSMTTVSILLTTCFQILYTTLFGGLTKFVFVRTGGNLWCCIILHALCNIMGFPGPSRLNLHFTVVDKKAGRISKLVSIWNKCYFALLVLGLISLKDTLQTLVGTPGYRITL
# [10] = target: T4, Neuropeptides B/W receptor type 1 (Homo sapiens, UniProt P48145); assay: human NPBW1 receptor blockade, IC50 – cell-based, fluorescence, dose response, set 6, late-stage follow-up (AID 588583); assay type: functional
# T4 sequence (P48145 whole entry): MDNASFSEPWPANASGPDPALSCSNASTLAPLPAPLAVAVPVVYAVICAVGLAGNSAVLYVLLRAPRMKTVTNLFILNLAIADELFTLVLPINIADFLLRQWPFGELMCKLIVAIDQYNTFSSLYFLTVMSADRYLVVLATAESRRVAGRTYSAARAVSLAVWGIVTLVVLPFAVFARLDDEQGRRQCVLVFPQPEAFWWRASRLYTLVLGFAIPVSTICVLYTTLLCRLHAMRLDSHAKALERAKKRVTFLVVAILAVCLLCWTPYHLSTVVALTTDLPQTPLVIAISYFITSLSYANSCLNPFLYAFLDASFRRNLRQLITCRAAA
# [11] = target: Melanin-concentrating hormone receptor 1 (Homo sapiens, UniProt Q99705); assay: Late-stage fluorescence-based counterscreen for antagonists of the G-protein coupled receptor 7 (GPR7): cell-based dose response assay to identify antagonists of the melanin-concentrating hormone receptor 1 (MCHR1) Set 6.; assay type: functional
# [12] = target: T5, Sentrin-specific protease 7 (Homo sapiens, UniProt Q9BQF6); assay type: functional;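 note: Luminescence-based dose-response confirmation of ultra-high-throughput screening hits, measuring inhibition of SENP7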
# T5 sequence (Q9BQF6 whole entry): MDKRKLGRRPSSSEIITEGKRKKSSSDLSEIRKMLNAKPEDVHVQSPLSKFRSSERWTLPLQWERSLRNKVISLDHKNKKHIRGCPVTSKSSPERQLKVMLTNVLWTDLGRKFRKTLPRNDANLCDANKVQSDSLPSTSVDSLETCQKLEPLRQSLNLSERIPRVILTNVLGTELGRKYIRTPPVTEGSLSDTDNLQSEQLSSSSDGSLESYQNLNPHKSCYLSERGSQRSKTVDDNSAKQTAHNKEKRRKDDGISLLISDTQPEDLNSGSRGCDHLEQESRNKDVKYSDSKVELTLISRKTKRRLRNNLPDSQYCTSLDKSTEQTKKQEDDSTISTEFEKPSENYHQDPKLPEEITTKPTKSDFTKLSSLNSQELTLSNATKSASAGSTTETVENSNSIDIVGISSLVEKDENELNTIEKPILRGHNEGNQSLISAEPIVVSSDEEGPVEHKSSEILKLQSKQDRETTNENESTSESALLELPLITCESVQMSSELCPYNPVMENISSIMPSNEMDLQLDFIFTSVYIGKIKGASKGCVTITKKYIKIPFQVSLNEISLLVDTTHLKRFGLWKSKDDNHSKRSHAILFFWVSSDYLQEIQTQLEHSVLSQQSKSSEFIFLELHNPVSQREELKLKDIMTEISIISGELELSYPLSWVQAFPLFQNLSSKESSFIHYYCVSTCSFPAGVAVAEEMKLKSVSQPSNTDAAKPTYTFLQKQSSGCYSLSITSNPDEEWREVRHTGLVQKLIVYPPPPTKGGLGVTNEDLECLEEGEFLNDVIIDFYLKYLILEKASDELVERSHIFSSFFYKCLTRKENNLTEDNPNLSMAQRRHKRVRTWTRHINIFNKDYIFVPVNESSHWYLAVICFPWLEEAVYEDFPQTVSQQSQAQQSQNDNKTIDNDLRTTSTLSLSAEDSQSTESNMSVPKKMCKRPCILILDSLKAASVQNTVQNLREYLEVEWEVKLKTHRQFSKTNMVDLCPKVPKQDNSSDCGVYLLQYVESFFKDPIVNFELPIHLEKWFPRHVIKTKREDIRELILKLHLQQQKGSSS
# [13] = target: T6, Sentrin-specific protease 6 (Homo sapiens, UniProt Q9GZR1); assay type: functional;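 note: Luminescence-based dose-response confirmatory assay of SENP6 inhibition, following up an ultra-high-throughput screen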
# T6 sequence (Q9GZR1 whole entry): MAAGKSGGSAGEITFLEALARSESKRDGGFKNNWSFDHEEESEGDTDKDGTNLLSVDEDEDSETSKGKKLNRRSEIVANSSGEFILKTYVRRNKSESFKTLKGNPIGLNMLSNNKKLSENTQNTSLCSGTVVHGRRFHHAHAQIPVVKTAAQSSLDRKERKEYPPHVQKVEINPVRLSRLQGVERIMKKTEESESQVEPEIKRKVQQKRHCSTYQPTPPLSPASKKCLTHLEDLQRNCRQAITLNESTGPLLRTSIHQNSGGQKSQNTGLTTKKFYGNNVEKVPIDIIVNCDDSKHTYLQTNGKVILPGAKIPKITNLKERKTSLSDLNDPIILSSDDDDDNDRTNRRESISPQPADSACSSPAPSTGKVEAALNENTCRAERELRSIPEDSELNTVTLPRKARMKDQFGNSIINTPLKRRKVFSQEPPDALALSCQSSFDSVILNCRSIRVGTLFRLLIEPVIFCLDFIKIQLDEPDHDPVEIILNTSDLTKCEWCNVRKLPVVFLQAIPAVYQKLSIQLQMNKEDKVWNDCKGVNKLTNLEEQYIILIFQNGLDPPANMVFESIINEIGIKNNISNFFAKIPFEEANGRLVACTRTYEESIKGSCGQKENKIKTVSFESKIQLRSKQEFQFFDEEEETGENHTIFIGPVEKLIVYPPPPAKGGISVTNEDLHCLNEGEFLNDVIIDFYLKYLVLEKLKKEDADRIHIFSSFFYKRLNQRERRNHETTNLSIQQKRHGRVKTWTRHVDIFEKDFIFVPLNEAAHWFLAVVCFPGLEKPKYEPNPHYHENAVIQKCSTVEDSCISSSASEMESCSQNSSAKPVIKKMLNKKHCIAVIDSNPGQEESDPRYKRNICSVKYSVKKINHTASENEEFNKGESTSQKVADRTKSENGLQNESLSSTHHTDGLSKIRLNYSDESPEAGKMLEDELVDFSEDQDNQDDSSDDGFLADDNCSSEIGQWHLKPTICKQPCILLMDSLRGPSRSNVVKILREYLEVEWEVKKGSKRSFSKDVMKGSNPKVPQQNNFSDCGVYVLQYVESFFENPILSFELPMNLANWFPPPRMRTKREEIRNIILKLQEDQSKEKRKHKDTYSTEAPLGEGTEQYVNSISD
# [14] = target: T7, Sentrin-specific protease 8 (Homo sapiens, UniProt Q96LD8); assay type: functional;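 note: luminescence read-out of SENP8 inhibition, dose-response confirmation following an ultra-high-throughput screen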
# T7 sequence (Q96LD8 whole entry): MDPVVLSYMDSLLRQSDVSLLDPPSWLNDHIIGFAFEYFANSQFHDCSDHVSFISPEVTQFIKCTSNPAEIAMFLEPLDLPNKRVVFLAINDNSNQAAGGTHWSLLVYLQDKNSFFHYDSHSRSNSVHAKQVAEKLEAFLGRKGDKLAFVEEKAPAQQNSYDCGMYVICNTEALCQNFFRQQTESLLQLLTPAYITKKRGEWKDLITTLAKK
# [15] = target: Mitochondrial peptide methionine sulfoxide reductase (Bos taurus, UniProt P54149); assay: Absorbance-based biochemical high throughput dose response assay for activators of Methionine sulfoxide reductase A (MsrA).; assay type: functional
# Caspase-3 = target: T8, Caspase-3 (Homo sapiens, UniProt P42574); assay type: functional;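 note: Dose-response selectivity test against caspase-3 for candidate inhibitors of sentrin-specific proteases (SENPs)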
# T8 sequence (P42574 whole entry): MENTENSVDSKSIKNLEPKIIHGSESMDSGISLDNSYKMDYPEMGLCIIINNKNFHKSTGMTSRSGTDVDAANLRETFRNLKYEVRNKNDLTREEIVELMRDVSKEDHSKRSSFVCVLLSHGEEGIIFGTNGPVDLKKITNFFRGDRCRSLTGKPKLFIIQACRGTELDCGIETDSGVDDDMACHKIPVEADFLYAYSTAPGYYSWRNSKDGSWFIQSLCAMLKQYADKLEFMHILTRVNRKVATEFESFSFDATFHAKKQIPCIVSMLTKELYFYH
# [16] = bead-based luminescence quenchers, dual-tagged ARNT – biochemical, AlphaScreen, cherry-pick, artefact control for ARNT-TACC3 interaction inhibitor project, dose response (AID 651705); assay type: functional;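 note: AlphaScreen bead proximity signal that flags compounds interfering with the detection technology; potency reflects signal decrease which marks the compound as an assay artifact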
# Sequence of Melanin-concentrating hormone receptor 1 (Q99705 whole entry): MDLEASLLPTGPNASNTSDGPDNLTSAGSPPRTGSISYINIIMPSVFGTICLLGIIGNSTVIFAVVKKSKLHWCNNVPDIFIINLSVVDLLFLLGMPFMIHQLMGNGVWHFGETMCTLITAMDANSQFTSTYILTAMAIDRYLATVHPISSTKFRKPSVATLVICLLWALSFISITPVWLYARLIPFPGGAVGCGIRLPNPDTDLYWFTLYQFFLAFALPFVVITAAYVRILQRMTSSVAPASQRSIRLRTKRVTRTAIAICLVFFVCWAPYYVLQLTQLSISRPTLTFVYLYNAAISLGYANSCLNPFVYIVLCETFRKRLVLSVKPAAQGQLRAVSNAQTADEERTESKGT
# Sequence of Trypsin (P00761 whole entry): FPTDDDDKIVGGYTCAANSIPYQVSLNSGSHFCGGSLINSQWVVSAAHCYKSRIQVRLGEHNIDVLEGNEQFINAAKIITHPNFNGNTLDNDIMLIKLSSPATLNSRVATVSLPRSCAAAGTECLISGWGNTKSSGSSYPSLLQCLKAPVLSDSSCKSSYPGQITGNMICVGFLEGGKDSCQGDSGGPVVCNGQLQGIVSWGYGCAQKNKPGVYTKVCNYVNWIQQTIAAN
# Sequence of Beta-2 adrenergic receptor (P07550 whole entry): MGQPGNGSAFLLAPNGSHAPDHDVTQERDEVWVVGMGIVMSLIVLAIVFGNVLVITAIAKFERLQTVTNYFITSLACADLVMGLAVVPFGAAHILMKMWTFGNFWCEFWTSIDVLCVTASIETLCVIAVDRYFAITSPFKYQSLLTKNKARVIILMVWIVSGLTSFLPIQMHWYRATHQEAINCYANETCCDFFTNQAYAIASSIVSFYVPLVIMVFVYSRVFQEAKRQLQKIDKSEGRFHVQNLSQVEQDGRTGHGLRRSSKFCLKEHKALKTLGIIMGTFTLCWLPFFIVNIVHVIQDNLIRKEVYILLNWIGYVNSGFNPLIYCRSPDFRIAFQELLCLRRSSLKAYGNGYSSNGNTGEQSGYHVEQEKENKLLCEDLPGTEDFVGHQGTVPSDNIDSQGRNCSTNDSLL
# Sequence of DNA dC->dU-editing enzyme APOBEC-3A (P31941 whole entry): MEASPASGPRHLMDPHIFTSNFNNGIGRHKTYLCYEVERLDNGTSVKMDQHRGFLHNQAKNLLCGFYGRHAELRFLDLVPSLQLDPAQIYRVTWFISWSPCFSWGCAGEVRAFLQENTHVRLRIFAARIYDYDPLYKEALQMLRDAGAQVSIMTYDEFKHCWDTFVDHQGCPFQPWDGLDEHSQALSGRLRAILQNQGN
# Sequence of Adenosylmethionine-8-amino-7-oxononanoate aminotransferase (P9WQ81 whole entry): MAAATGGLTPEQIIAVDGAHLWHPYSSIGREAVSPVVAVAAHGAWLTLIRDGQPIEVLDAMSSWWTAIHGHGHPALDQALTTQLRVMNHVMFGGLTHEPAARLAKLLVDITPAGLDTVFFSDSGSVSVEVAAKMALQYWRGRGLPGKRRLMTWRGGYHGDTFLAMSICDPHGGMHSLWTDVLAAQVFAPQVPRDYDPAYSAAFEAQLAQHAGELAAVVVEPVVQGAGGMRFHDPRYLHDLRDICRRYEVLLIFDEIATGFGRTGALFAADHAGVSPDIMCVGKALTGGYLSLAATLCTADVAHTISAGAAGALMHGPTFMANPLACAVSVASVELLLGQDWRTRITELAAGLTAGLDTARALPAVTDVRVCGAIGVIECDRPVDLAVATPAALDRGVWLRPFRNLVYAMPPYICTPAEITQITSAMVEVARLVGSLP
# Sequence of Mitochondrial peptide methionine sulfoxide reductase (P54149 whole entry): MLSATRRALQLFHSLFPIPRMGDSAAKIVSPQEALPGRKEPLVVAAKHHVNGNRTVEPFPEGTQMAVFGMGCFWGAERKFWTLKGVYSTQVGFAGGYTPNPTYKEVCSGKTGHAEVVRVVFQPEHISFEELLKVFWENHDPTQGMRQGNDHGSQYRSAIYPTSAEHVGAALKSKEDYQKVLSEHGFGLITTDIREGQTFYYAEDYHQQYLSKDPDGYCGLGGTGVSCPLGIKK
# Sequence of DNA (cytosine-5)-methyltransferase 1 (P26358 whole entry): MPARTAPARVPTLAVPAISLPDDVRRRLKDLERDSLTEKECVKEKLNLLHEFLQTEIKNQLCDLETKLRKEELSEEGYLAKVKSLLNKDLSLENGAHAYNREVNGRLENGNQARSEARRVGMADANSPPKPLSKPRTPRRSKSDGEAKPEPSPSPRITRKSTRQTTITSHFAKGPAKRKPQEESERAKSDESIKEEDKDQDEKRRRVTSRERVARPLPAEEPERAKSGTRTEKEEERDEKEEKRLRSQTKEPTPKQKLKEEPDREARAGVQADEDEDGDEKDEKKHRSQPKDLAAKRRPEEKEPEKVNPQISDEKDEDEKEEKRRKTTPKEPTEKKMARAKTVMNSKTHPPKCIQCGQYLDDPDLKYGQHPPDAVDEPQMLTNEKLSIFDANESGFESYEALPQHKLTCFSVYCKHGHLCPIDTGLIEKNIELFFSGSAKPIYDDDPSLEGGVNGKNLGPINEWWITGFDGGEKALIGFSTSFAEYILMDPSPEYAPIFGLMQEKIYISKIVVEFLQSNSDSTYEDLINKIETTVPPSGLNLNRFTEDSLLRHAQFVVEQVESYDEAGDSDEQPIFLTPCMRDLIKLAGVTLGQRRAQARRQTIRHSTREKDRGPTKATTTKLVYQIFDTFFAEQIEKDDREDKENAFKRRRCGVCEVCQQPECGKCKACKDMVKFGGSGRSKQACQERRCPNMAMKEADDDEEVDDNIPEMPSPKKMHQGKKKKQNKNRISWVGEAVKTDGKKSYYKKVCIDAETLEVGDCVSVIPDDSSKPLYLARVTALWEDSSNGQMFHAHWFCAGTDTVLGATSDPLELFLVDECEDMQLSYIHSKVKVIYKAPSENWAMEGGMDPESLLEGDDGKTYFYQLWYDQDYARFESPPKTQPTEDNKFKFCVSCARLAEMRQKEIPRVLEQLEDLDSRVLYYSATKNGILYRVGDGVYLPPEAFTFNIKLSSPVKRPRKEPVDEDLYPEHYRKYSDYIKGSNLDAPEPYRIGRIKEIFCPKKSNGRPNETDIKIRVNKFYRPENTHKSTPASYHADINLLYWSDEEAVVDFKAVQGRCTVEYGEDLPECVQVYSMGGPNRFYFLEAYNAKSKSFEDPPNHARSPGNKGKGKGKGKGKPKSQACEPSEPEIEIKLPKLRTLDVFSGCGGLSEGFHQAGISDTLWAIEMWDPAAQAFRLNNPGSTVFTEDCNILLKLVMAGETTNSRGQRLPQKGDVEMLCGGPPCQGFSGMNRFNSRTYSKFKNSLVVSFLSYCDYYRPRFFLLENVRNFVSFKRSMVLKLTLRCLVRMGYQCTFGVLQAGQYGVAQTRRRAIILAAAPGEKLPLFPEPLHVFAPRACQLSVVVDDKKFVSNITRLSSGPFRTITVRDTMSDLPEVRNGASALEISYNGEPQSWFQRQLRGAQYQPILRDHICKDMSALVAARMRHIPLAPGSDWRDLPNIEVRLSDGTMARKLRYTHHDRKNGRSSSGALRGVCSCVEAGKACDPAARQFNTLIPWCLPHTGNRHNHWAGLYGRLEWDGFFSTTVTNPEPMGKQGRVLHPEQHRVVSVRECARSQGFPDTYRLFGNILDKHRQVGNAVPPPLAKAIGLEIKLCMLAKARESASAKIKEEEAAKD
# Sequence of DNA dC->dU-editing enzyme APOBEC-3G (Q9HC16 whole entry): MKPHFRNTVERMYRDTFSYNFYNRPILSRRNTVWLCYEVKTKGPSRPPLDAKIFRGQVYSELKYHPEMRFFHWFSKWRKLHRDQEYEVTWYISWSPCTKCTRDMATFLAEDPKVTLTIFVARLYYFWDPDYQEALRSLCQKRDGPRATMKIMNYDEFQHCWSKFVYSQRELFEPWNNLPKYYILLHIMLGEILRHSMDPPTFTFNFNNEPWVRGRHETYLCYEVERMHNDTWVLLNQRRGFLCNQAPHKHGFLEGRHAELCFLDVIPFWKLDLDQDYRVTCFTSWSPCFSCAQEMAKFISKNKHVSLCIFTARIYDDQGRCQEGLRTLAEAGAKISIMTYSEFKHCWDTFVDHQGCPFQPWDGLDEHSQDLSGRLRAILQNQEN
smiles,measurement,setting,value
O=C(O)C(c1ccccc1)N1C(=O)/C(=C\c2ccc(-c3ccc(Br)cc3)o2)SC1=S (stereo unspecified),IC50,[1],4.08 µM (active)
same,EC50,Streptococcus,2.51 µM (active)
same,EC50,Streptokinase A,1.55 µM (active)
same,EC50,[2],1.81 µM (active)
CCn1c(SCC(=O)N2CCCC2)nnc1-c1ccc(N)cc1,EC50,[3],2.07 µM (active)
same,IC50,[4],2.75 µM (active)
same,IC50,[5],2.31 µM (active)
Cc1ccc(C(=O)Nc2nc(-c3ccccn3)cs2)cc1,AC50,[6],9.7 µM (active)
CCOc1ccc(C(=O)Nc2cc3c(cc2N2CCCC2)n(CC)c(=O)n3CC)cc1OCC,AC50,[7],6.03 µM (active)
CC(C)OC(=O)c1c(N)n(CCCN2CCOCC2)c2nc3ccccc3nc12,AC50,Trypsin,6.98 µM (active)
same,AC50,CAAX prenyl protease 2 [8],4.27 µM (active)
same,AC50,CAAX prenyl protease 2 [9],11.9 µM (active)
Cc1ccc(C(C#N)c2c(Br)cnn(Cc3cccc4ccccc34)c2=O)cc1 (stereo unspecified),IC50,[10],0.219 µM (active)
same,IC50,[11],0.219 µM (active)
COC(=O)c1cc([N+](=O)[O-])c(-n2cncn2)c([N+](=O)[O-])c1,EC50,[3],19 µM (inactive)
O=C(COC(=O)c1ccc([N+](=O)[O-])s1)NCc1ccc(F)cc1,IC50,[12],6.18 µM (active)
same,IC50,[13],3.68 µM (active)
same,IC50,[14],3.72 µM (active)
same,EC50,[15],27.2 µM (inactive)
same,IC50,Caspase-3,9.32 µM (active)
Oc1c(/C=N/CCCn2ccnc2)c(-c2ccccc2)nn1-c1nc2ccccc2s1,AC50,[16],99.5 µM (active)
COc1ccc(C(C#N)c2c(Br)cnn(Cc3cccc4ccccc34)c2=O)cc1 (stereo unspecified),IC50,[10],0.131 µM (active)
same,IC50,[11],0.131 µM (active)
NC(=O)N1N=C2/C(=C/c3ccccc3)CCCC2C1c1ccccc1 (stereo unspecified),AC50,Trypsin,10.8 µM (active)
same,AC50,CAAX prenyl protease 2 [8],12.1 µM (active)
same,AC50,CAAX prenyl protease 2 [9],9.14 µM (active)
